Patent publication US11491127B2, “Therapeutic use of compounds” (UCL BUSINESS LTD, priority 2010, dated 2022)
pEC50, pIC50: −log10 of the molar value. Read-outs that look alike come from different tables or passages of the source.

Experiments:
[1] = tested on: release of 3H arachidonic acid / palmitic acid radiolabel from Dictyostelium cells; test: Fatty acid release (3H radiolabel release from labelled cells); format: cell-based, Dictyostelium discoideum
[2] = cited from earlier work
[3] = tested on: PTZ-induced epileptiform activity in entorhinal cortex-hippocampal slices; test: In vitro PTZ acute seizure model, entorhinal cortex-hippocampus slices; format: cell-based, rat; conditions: PTZ 2 mM, [K+] 6 mM; compounds equimolar 1 mM; 30 to 40 minutes after application
Description: The rats (p21) were decapitated after killing by intraperitoneal injection with an overdose of pentobarbitone (500 mg/kg). The brain was removed and placed in ice-cold sucrose solution in mM: NaCl 87, KCl 2.5, MgCl2 7, CaCl2 0.5, NaH2PO4 1.25, sucrose 75, glucose 25, equilibrated with 95% 02/5% CO2 (pH 7.4). Horizontal combined entorhinal cortex-hippocampus slices (350 μm) were prepared with a Leica vibratome (Leica V T1200S) and were then stored in an interface chamber that contained artificial cerebrospinal fluid solution (aCSF) containing in mM: NaCl 119, KCl 2.5, MgSO4 4, CaCl2 4, NaHCO326.2, NaH2PO4 1, glucose 11, and gassed with 95% O2/5% CO2. They were stored for over one hour before being transferred to a submersion recording chamber continually perfused with carbogenated aCSF for recording. Field potential recordings were made by placing glass microelectrodes (˜1-2 MΩ) filled with aCSF solution in stratum radiatum of CA1. Bipolar stimulating electrodes were positioned in the Schaffer collateral/commissural fibre pathway in stratum radiatum to confirm slice viability. In the PTZ acute seizure model, PTZ (2 mM) was added to the perfusate and [K+] was increased to 6 mM in order to induce epileptiform activity (Armand et al., 1998). In the low Mg^2+ acute seizure model, Mg^2+ free aCSF was applied to generate rhythmic short recurrent discharges. Novel anticonvulsants were applied once the frequency and amplitude of the epileptiform discharges were stable over a period of 10 min. Anticonvulsant effects were evaluated by measuring the variation of frequency of the discharges every minute. The data acquired from the 30 to 40 minutes after application novel anticonvulsants were compared by ANOVA followed by post-hoc testing using Tukey test, using SPSS statistical analysis.

[4] = tested on: fatty acid CoA activation in Dictyostelium cell extracts; test: Fatty acid activation (palmitic acid to PaA-CoA) in cell extracts; format: biochemical, Dictyostelium discoideum; conditions: VPA 1.0 mM with cell extracts or 10 min, 1 mM pre-treatment of cells
Description: Screening of a REMI library was carried out as previously described (Kuspa & Loomis, 2006) using A×2 background, with VPA resistant mutants selected for the ability to develop in the presence of 1 mM VPA on R. planticola. Identification of the ablated gene, enabled the identified PLAa (DDB_G0278525; SEQ ID NO: 16) to be recapitulated using by homologous recombination of a knockout cassette. Primers used for amplifying region within the open reading frame of the gene were (5′ […] (SEQ ID NO: 17) and 3′ […] (SEQ ID NO: 18), cloned by pCR2.1 TOPO (Invitrogen Ltd)), cloned into pUC19 using EcoRI digestion, and Sinai digested fragment from pBLPblp (Falx et al, 2004) was inserted into the EcoRV site of the insert. Genetic ablation was confirmed by PCR analysis. Developmental resistance to VPA was assessed by plating cells (1×10^6) on 47 mm nitrocellulose filters (Millipore) soaked in phosphate buffer containing either 1 mM VPA or control, and development was recorded after 30 h unless otherwise stated. Development images were observed using a Leica CLS 150× microscope and images recorded using QICAM FAST 1394 camera. Fatty acid activation was determined by the method established by Wilson et al. (Wilson et al, 1982) with slight modifications. […]

[5] = tested on: phosphoinositide (PIP and PIP2) turnover in Dictyostelium AX2 cells; test: Dictyostelium phospholipid labelling (PIP and PIP2 turnover); format: cell-based, Dictyostelium discoideum; conditions: for activity at 500 µM: 0.1 h
Description: Phospholipid labelling was quantified using a Typhoon phosphor-imager. Even loading was determined using total lipid stain with copper sulphate.

[6] = tested on: uptake of 3H arachidonic acid / palmitic acid into Dictyostelium cells; test: Fatty acid uptake (3H radiolabel incorporation into cells); format: cell-based, Dictyostelium discoideum; conditions: for pEC50: Dictyostelium
[7] = 0.5 mM VPA, 6 min treatment (printed 6 mM)
[8] = 5×PI3K knockout mutant, 0.5 mM VPA, 9 min
[9] = PIPKinA knockout mutant, 0.5 mM VPA, 9 min
[10] = cells lacking phospholipase C gene, 0.5 mM VPA, 9 min
[11] = prolyl oligopeptidase (PO) ablated cells, 0.5 mM VPA, 9 min
[12] = rPKA knockout mutant, 0.5 mM VPA, 9 min

CCCC(CCC)C(=O)O [VPA, 2-propylpentanoic acid, reference compound]
activity at 500 µM ([1]; Dictyostelium, 0.5 h, Table 3, 3H-AA labelled cells, 30 min, 0.5 mM treatment, read-out: AA release [% of control]): 50%
pIC50 ([1]; Dictyostelium, 3H arachidonic acid labelled cells, read-out: IC50 of decrease in radiolabel release): 4.05
pIC50 ([1]; Dictyostelium, 3H palmitic acid labelled cells, read-out: IC50 of inhibition of tritiated palmitic acid release): 3.79
radiolabel release activity relative to control ([1]; Table 3, 30 min, 0.5 mM): 50 % of control
concentration in plasma in therapeutic use ([2]; DSM IV, 2000): 400 to 700 µM
concentration in plasma of patients receiving treatment ([2]; Silva et al., 2008): 280 to 700 µM
frequency of epileptiform discharges (seizure discharge frequency) [3]: 75.1±1.7%
effect on fatty acid activation (PaA-CoA) [4]: no effect
reduction in radio-labelled PIP2 turnover [5, 7]: 49%
reduction in radio-labelled PIP turnover [5, 7]: 49%
reduction of PIP2 turnover ([5]; 0.5 mM VPA, 9 min treatment): 79%
reduction of PIP turnover ([5]; 0.5 mM VPA, 9 min treatment): 68%
reduction in PIP2 turnover ([5]; 0.5 mM VPA, 60 min treatment): 94%
reduction in PIP turnover ([5]; 0.5 mM VPA, 60 min treatment): 94%
reduction of PIP2 production compared to untreated cells [5, 8]: 70%
reduction of PIP production compared to untreated cells [5, 8]: 48%
activity at 500 µM ([5]; Dictyostelium, read-out: PIP Level (% control), Table 1, 0.5 mM compound, 3 min pre-treatment + 6 min labelling, wild type Dictyostelium): 32%
activity at 500 µM ([5]; Dictyostelium, read-out: PIP level % control, Table 2, VPA and straight chain acids in Dictyostelium): 32%
pEC50 ([5]; Dictyostelium, 0.15 h, read-out: EC50 of inhibition of phosphoinositide turnover): 3.81
inhibition at 250 µM ([5]; Dictyostelium, 0.15 h, read-out: inhibition of PIP2 turnover): 42%
inhibition at 250 µM ([5]; Dictyostelium, 0.15 h, read-out: inhibition of PIP turnover): 25%
reduction in PIP2 synthesis compared to untreated cells [5, 9]: 68%
reduction in PIP synthesis compared to untreated cells [5, 9]: 54%
reduction in PIP2 signalling [5, 10]: 75%
reduction in PIP signalling [5, 10]: 73%
reduction in PIP2 signalling [5, 11]: 68%
reduction in PIP signalling [5, 11]: 66%
additional reduction of PIP2 production compared to untreated cells [5, 12]: 33%
additional reduction of PIP production compared to untreated cells [5, 12]: 72%
pEC50 ([6]; 3H arachidonic acid, read-out: EC50 of increase in uptake of AA): 4.33
pEC50 ([6]; 3H palmitic acid, read-out: EC50 of increase in uptake of palmitic acid): 3.80
fatty acid uptake in cell lines lacking fcsA ([6]; fcsA -/- cells, 0.5 mM VPA): increase
